In patent US20140023713A1, “CLATHRATE COMPLEX OF CYCLODEXTRIN OR ARABINOGALACTAN WITH 9-PHENYL-SYM-OCTA-HYDROSELENOXANTENE” (priority 2011, published 2014):
Entries after “also recorded” stand apart in the source; their conditions may differ. Read-outs that look alike come from different tables or passages of the source.

Key:
CFU-C-8 = type: in vivo, mice
Procedure: A study on cytoprotective effect of the compound 1 was conducted.

hematopoietic stem cells = test: cloning method of hematopoietic stem cells in the spleens of irradiated mice (spleen colony formation by donor bone marrow cells, radioprotection); type: in vivo
Procedure: The study of radioprotective and cytoprotective properties of compound 1 and the complex compound 2 (ratio 1:3) by cloning method of hematopoietic stem cells in the spleens of irradiated mice.
1) Formation of spleen colonies by bone marrow cells of mice that received Compound 2 multiple times prior to irradiation at a dose of 1.5 Gy. Unlike compound 1, the complex form of compound 2 is water-soluble.
Compound 2 was administered orally to mice-donors of bone marrow at doses of 5 mg/kg and 2 mg/kg in 0.2 ml physiological solution for 5 days. […] Control mice received 0.2 ml of physiological solution for 5 days. 7 days after the last injection, mice were irradiated (1.5 Gy at installation “Luch-1”). 15 minutes later the animals were sacrificed, a bone marrow cell suspension was prepared and injected to lethally irradiated recipient mice for determination of the colony-forming ability.
2) Formation of spleen colonies by bone marrow cells of mice that received Compound 1, suspended in a starch gel, multiple times prior to irradiation at a dose of 1.5 Gy.
In the second series of experiments using the same experimental scheme and similar doses, the Compound 1 suspension was prepared in 2% starch gel. 90 female mice (CBA×C57B1/6) F1 were used in this study: 18 donors and 72 recipients.

| Structure (SMILES) | CFU-C-8 Quantity on 10^5 bone marrow cells of donors (CFU-C-8; mouse, in vivo) | Quantity of colonies on 105 cells of bone marrow M ± m (hematopoietic stem cells; Compound 1 2 mg/kg + Starch gel 2%, no irradiation, 2 mg/kg) | Quantity of colonies on 105 cells of bone marrow M ± m (hematopoietic stem cells; Compound 1 2 mg/kg + Starch gel 2%, no irradiation, listed as compound 1, 2 mg/kg) | Quantity of colonies on 105 cells of bone marrow M ± m (hematopoietic stem cells; Compound 1 2 mg/kg + Starch gel 2%, then 1.5 Gy irradiation) | Quantity of colonies on 105 cells of bone marrow M ± m (hematopoietic stem cells; Compound 1 5 mg/kg + Starch gel 2%, no irradiation, 5 mg/kg) | Quantity of colonies on 105 cells of bone marrow M ± m (hematopoietic stem cells; Compound 1 5 mg/kg + Starch gel 2%, no irradiation, listed as compound 1, 5 mg/kg) | Quantity of colonies on 105 cells of bone marrow M ± m (hematopoietic stem cells; Compound 1 5 mg/kg + Starch gel 2%, then 1.5 Gy irradiation) | adaptive response of hematopoietic stem cells to irradiation / radioprotective effect (in words) (hematopoietic stem cells; treatment for 5 days prior to irradiation 1.5 Gy, both doses (5 and 2 mg/kg)) | CFU-C-8 Quantity on 10^5 bone marrow cells of donors (CFU-C-8; Compound 1 5 mg/kg 7 days prior to single Cisplatin 5 mg/kg) | CFU-C-8 Quantity on 10^5 bone marrow cells of donors (CFU-C-8; Compound 1 5 mg/kg, no Cisplatin) | adaptive response of CFU-S-8 to cisplatin (in words) (CFU-C-8; administered 7 days prior to a single injection of cisplatin) |
| --- | --- | --- | --- | --- | --- | --- | --- | --- | --- | --- | --- |
| N.N.[Cl][Pt][Cl] [Cisplatin, reference compound] | 6.4 ± 0.6 | – | – | – | – | – | – | – | – | – | – |
| c1ccc(C2C3=C(CCCC3)[Se]C3=C2CCCC3)cc1 [Compound 1, 9-phenyl-sym-octahydroselenoxanthene] | – | 24 ± 1.3 | statistically significant increase in the number of colonies | 9.1 ± 0.3 | 28.7 ± 1.1 | statistically significant increase in the number of colonies | 9.5 ± 0.8 | absent; also recorded: does not provide the radioprotective effect | 9.6 ± 0.3 | 12.6 ± 0.6 | distinct adaptive response |
